These results are taken from ChEMBL document CHEMBL4177545, “Potential Antiosteoporotic Natural Product Lead Compounds That Inhibit 17β-Hydroxysteroid Dehydrogenase Type 2” (J Nat Prod, 2017).

For test [1], the target named is T1, 17-beta-hydroxysteroid dehydrogenase type 1 (Homo sapiens, UniProt P14061).
T1 sequence (P14061 whole entry): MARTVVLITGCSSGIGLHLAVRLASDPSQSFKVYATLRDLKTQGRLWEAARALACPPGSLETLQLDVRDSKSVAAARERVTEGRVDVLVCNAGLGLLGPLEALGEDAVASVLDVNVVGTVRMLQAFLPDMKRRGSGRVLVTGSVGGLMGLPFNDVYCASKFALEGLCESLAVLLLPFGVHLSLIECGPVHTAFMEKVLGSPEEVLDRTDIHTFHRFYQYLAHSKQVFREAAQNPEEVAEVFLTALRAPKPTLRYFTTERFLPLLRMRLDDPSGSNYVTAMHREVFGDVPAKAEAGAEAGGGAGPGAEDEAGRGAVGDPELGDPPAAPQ
Description: Inhibition of human 17beta-HSD1 expressed in HEK293 cell lysates incubated for 10 mins using [2,4,6,7-3H]-estrone and NADPH by scintillation counting method.

The species named for the next test is Homo sapiens. Description: Selectivity index, ratio of inhibition of human 17beta-HSD1 expressed in HEK293 cell lysates to inhibition of human 17beta-HSD2 expressed in HEK293 cell lysates.
In another test the target is Estrogen receptor beta (Homo sapiens, UniProt Q92731). Nature of the test: Displacement of estradiol from human ERbetaa expressed in yeast cells. Type of test: cell-based.
The target in the next test is T2, Aromatase (Homo sapiens, UniProt P11511).
T2 sequence (P11511 whole entry): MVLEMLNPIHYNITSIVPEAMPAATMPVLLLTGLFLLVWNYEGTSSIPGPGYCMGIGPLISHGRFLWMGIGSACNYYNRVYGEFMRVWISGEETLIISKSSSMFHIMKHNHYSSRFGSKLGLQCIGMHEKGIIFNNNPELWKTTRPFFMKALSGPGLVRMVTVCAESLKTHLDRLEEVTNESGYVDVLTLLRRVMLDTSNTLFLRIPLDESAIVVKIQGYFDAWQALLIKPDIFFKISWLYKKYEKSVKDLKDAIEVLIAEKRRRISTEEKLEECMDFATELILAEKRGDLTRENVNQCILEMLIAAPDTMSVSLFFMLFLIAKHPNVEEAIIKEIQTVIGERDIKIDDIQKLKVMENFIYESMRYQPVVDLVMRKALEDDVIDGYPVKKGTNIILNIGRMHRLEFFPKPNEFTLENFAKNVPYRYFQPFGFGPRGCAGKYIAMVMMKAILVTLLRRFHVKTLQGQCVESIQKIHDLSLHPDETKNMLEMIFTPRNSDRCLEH
Description: Inhibition of aromatase (unknown origin).

The target in the next test is T3, Estrogen receptor (Homo sapiens, UniProt P03372).
T3 sequence (P03372 whole entry): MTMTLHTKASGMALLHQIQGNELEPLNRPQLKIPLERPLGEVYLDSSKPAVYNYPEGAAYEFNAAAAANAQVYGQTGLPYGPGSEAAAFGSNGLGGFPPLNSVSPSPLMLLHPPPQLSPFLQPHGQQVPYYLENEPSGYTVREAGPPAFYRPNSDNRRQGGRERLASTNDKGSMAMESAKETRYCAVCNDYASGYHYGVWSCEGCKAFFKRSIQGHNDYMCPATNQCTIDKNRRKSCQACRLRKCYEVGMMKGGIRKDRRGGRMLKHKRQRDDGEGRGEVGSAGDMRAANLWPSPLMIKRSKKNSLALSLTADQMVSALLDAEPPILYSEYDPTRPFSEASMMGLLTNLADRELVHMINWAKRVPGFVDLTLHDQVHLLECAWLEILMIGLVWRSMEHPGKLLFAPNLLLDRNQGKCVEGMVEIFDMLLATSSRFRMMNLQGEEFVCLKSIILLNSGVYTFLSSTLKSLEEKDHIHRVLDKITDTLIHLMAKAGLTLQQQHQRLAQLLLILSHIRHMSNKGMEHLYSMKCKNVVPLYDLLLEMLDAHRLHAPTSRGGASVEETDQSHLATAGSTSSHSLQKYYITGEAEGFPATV
Description: Displacement of estradiol from human ERalpha expressed in yeast cells. Type of test: cell-based.

Sequence of Estrogen receptor beta (Q92731 whole entry): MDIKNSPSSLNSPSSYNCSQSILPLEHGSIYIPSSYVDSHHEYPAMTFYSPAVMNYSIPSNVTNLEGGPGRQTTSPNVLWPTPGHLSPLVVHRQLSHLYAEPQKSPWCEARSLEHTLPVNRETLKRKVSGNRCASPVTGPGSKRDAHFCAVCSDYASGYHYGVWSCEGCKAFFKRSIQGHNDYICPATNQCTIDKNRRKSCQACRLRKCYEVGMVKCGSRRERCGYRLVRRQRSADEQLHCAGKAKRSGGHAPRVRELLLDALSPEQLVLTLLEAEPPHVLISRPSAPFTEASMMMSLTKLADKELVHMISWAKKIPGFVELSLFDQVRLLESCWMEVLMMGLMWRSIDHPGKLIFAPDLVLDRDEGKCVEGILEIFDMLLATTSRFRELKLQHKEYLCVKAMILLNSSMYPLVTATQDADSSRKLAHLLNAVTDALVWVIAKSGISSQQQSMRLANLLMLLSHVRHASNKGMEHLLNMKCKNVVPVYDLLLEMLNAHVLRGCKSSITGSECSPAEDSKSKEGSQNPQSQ

In general, IC50 refers to the point on the concentration scale where inhibition reaches its midpoint. A high value points to weaker potency in that assay. Take `CCOC(=O)c1ccc(O)c(OC)c1`: the IC50 result in test [1] was “Not Active”. On the same count and under the same terms, the value for `O=C(Cc1ccc(O)c(Cl)c1)NCc1ccccc1` was “Not Active”; that for `O=C(Cc1ccc(O)c(Cl)c1)NCCc1ccccc1` was “Not Active”. `O=C(Cc1ccc(O)c(Cl)c1)NCc1ccccc1Cl`: in the test listed under Homo sapiens, the Selectivity Index was 25.

Regarding `O=C(Cc1ccc(O)c(Cl)c1)NCCc1c[nH]c2ccccc12`, the IC50 entry in test [1] is “Not Active”. For `COc1cc(/C=C/C(=O)CC(=O)/C=C/c2ccc(O)c(OC)c2)ccc1O`, in the test filed under Homo sapiens, the Selectivity Index was determined as 12. Consider `O=C(/C=C/c1ccc(O)cc1)c1ccc(O)cc1O` [ISOLIQUIRITIGENIN], for which the values for the IC50 on Estrogen receptor beta, at Aromatase and on Estrogen receptor were 269 nM, 3800 nM and 1870 nM, respectively.

For `O=C(/C=C/c1ccc(O)c(O)c1)O[C@H](Cc1ccc(O)c(O)c1)C(=O)O` [ROSMARINIC ACID], the concentration for half-maximal inhibition (IC50) entry in test [1] was “Not Active”.
